From ChEMBL document CHEMBL1138574, “Regioselective synthesis and stereochemical structure of anti-tumor active dispiro[3H-indole-3,2'-pyrrolidine-3',3''-piperidine]-2(1H),4''-diones” (2009)

What follows are molecules tested on Rattus norvegicus (assay: Antiinflammatory activity in Wister albino rat assessed as inhibition of carrageenan-induced paw oedema at 50 mg/kg, ip administered 1 hr before carrageenan challenge measured after 3 hrs of induction of inflammation relative to control). Settings: route intraperitoneal.
Type: functional
With CN1C/C(=C\c2ccc(Cl)cc2)C(=O)[C@]2(C1)[C@@H](c1ccc(Cl)cc1)CN(C)[C@@]21C(=O)Nc2ccccc21 the inhibition in vivo at 50 mg/kg was 49.6%.

The molecules below were run on HOP-62 (assay: Antitumor activity against human HOP62 cells assessed as cell growth at 10 uM after 48 hrs by sulforhodamine B assay). Settings: HOP-62, 48 h, read-out: Activity.
Type: functional
CN1C/C(=C\c2ccc(Cl)cc2)C(=O)[C@]2(C1)[C@@H](c1ccc(Cl)cc1)CN(C)[C@@]21C(=O)Nc2ccccc21 showed a growth at 10 µM of 73.6%.

These molecules were tested on BT-549 (assay: Antitumor activity against human BT549 cells assessed as cell growth at 10 uM after 48 hrs by sulforhodamine B assay). Settings: BT-549, 48 h, read-out: Activity.
Type: functional
CN1C/C(=C\c2ccc(Cl)cc2)C(=O)[C@]2(C1)[C@@H](c1ccc(Cl)cc1)CN(C)[C@@]21C(=O)Nc2ccccc21 was tested, and the growth at 10 µM was 63.9%.

Each molecule was assayed on COLO 205 (assay: Antitumor activity against human COLO205 cells assessed as cell growth at 10 uM after 48 hrs by sulforhodamine B assay). Settings: COLO 205, 48 h, read-out: Activity.
Type: functional
For CN1C/C(=C\c2ccc(Cl)cc2)C(=O)[C@]2(C1)[C@@H](c1ccc(Cl)cc1)CN(C)[C@@]21C(=O)Nc2ccccc21, the growth at 10 µM was 92.7%.

These molecules were tested on SK-MEL-2 (assay: Antitumor activity against human SK-MEL-2 cells assessed as cell growth at 10 uM after 48 hrs by sulforhodamine B assay). Settings: SK-MEL-2, 48 h, read-out: Activity.
Type: functional
Molecule CN1C/C(=C\c2ccc(Cl)cc2)C(=O)[C@]2(C1)[C@@H](c1ccc(Cl)cc1)CN(C)[C@@]21C(=O)Nc2ccccc21 has a growth at 10 µM of 76.2%.

The molecules below were run on SF-295 (assay: Antitumor activity against human SF295 cells assessed as cell growth at 10 uM after 48 hrs by sulforhodamine B assay). Settings: SF-295, 48 h, read-out: Activity.
Type: functional
In the case of CN1C/C(=C\c2ccc(Cl)cc2)C(=O)[C@]2(C1)[C@@H](c1ccc(Cl)cc1)CN(C)[C@@]21C(=O)Nc2ccccc21, the growth at 10 µM is reported as 64.5%.

What follows are molecules tested on HCT-116 (assay: Antitumor activity against human HCT116 cells assessed as cell growth at 10 uM after 48 hrs by sulforhodamine B assay). Settings: HCT-116, 48 h, read-out: Activity.
Type: functional
CN1C/C(=C\c2ccc(Cl)cc2)C(=O)[C@]2(C1)[C@@H](c1ccc(Cl)cc1)CN(C)[C@@]21C(=O)Nc2ccccc21 was tested, and the growth at 10 µM was 45.9%.

These molecules were tested on HCC 2998 (assay: Antitumor activity against human HCC2998 cells assessed as cell growth at 10 uM after 48 hrs by sulforhodamine B assay). Settings: HCC 2998, 48 h, read-out: Activity.
Type: functional
For CN1C/C(=C\c2ccc(Cl)cc2)C(=O)[C@]2(C1)[C@@H](c1ccc(Cl)cc1)CN(C)[C@@]21C(=O)Nc2ccccc21, the growth at 10 µM was 70.7%.

These molecules were tested on T47D (assay: Antitumor activity against human T47D cells assessed as cell growth at 10 uM after 48 hrs by sulforhodamine B assay). Settings: read-out: Activity.
Type: functional
CN1C/C(=C\c2ccc(Cl)cc2)C(=O)[C@]2(C1)[C@@H](c1ccc(Cl)cc1)CN(C)[C@@]21C(=O)Nc2ccccc21 was tested, and the growth at 10 µM was 46.1%.

The molecules below were run on MDA-MB-231 (assay: Antitumor activity against human MDA-MB-231 cells assessed as cell growth at 10 uM after 48 hrs by sulforhodamine B assay). Settings: MDA-MB-231, 48 h, read-out: Activity.
Type: functional
CN1C/C(=C\c2ccc(Cl)cc2)C(=O)[C@]2(C1)[C@@H](c1ccc(Cl)cc1)CN(C)[C@@]21C(=O)Nc2ccccc21 was tested, and the growth at 10 µM was 74.9%.

Each molecule was assayed on K562 (assay: Antitumor activity against human K562 cells assessed as cell growth at 10 uM after 48 hrs by sulforhodamine B assay). Settings: K562, 48 h, read-out: Activity.
Type: functional
With CN1C/C(=C\c2ccc(Cl)cc2)C(=O)[C@]2(C1)[C@@H](c1ccc(Cl)cc1)CN(C)[C@@]21C(=O)Nc2ccccc21 the growth at 10 µM was 45.1%.

What follows are molecules tested on MDA-MB-435 (assay: Antitumor activity against human MDA-MB-435 cells assessed as cell growth at 10 uM after 48 hrs by sulforhodamine B assay). Settings: MDA-MB-435, 48 h, read-out: Activity.
Type: functional
In the case of CN1C/C(=C\c2ccc(Cl)cc2)C(=O)[C@]2(C1)[C@@H](c1ccc(Cl)cc1)CN(C)[C@@]21C(=O)Nc2ccccc21, the growth at 10 µM is reported as 61.1%.

The molecules below were run on Rattus norvegicus (assay: Antiinflammatory activity in Wister albino rat assessed as inhibition of carrageenan-induced paw oedema at 50 mg/kg, ip administered 1 hr before carrageenan challenge measured after 24 hrs of induction of inflammation relative to control). Settings: route intraperitoneal.
Type: functional
Work on CN1C/C(=C\c2ccc(Cl)cc2)C(=O)[C@]2(C1)[C@@H](c1ccc(Cl)cc1)CN(C)[C@@]21C(=O)Nc2ccccc21 yielded an inhibition in vivo at 50 mg/kg of 38.2%.

The molecules below were run on MDA-MB-468 (assay: Antitumor activity against human MDA-MB-468 cells assessed as cell growth at 10 uM after 48 hrs by sulforhodamine B assay). Settings: MDA-MB-468, 48 h, read-out: Activity.
Type: functional
Work on CN1C/C(=C\c2ccc(Cl)cc2)C(=O)[C@]2(C1)[C@@H](c1ccc(Cl)cc1)CN(C)[C@@]21C(=O)Nc2ccccc21 yielded a growth at 10 µM of 56.6%.

The molecules below were run on HCT-15 (assay: Antitumor activity against human HCT15 cells assessed as cell growth at 10 uM after 48 hrs by sulforhodamine B assay). Settings: HCT-15, 48 h, read-out: Activity.
Type: functional
CN1C/C(=C\c2ccc(Cl)cc2)C(=O)[C@]2(C1)[C@@H](c1ccc(Cl)cc1)CN(C)[C@@]21C(=O)Nc2ccccc21 showed a growth at 10 µM of 68.5%.

What follows are molecules tested on NCI-H522 (assay: Antitumor activity against human NCI-H522 cells assessed as cell growth at 10 uM after 48 hrs by sulforhodamine B assay). Settings: NCI-H522, 48 h, read-out: Activity.
Type: functional
CN1C/C(=C\c2ccc(Cl)cc2)C(=O)[C@]2(C1)[C@@H](c1ccc(Cl)cc1)CN(C)[C@@]21C(=O)Nc2ccccc21 showed a growth at 10 µM of 59.8%.

What follows are molecules tested on CCRF-CEM (assay: Antitumor activity against human CCRF-CEM cells assessed as cell growth at 10 uM after 48 hrs by sulforhodamine B assay). Settings: read-out: Activity.
Type: functional
With CN1C/C(=C\c2ccc(Cl)cc2)C(=O)[C@]2(C1)[C@@H](c1ccc(Cl)cc1)CN(C)[C@@]21C(=O)Nc2ccccc21 the growth at 10 µM was 51.3%.

The molecules below were run on NCI-H322M (assay: Antitumor activity against human NCI-H322M cells assessed as cell growth at 10 uM after 48 hrs by sulforhodamine B assay). Settings: read-out: Activity.
Type: functional
CN1C/C(=C\c2ccc(Cl)cc2)C(=O)[C@]2(C1)[C@@H](c1ccc(Cl)cc1)CN(C)[C@@]21C(=O)Nc2ccccc21 showed a growth at 10 µM of 68.7%.

Each molecule was assayed on ACHN (assay: Antitumor activity against human ACHN cells assessed as cell growth at 10 uM after 48 hrs by sulforhodamine B assay). Settings: read-out: Activity.
Type: functional
CN1C/C(=C\c2ccc(Cl)cc2)C(=O)[C@]2(C1)[C@@H](c1ccc(Cl)cc1)CN(C)[C@@]21C(=O)Nc2ccccc21 gave a growth at 10 µM of 63.6%.

These molecules were tested on HT-29 (assay: Antitumor activity against human HT-29 cells assessed as cell growth at 10 uM after 48 hrs by sulforhodamine B assay). Settings: HT-29, 48 h, read-out: Activity.
Type: functional
In the case of CN1C/C(=C\c2ccc(Cl)cc2)C(=O)[C@]2(C1)[C@@H](c1ccc(Cl)cc1)CN(C)[C@@]21C(=O)Nc2ccccc21, the growth at 10 µM is reported as 59.5%.

Each molecule was assayed on SR (assay: Antitumor activity against human SR cells assessed as cell growth at 10 uM after 48 hrs by sulforhodamine B assay). Settings: read-out: Activity.
Type: functional
In the case of CN1C/C(=C\c2ccc(Cl)cc2)C(=O)[C@]2(C1)[C@@H](c1ccc(Cl)cc1)CN(C)[C@@]21C(=O)Nc2ccccc21, the growth at 10 µM is reported as 67.5%.

The molecules below were run on EKVX (assay: Antitumor activity against human EKVX cells assessed as cell growth at 10 uM after 48 hrs by sulforhodamine B assay). Settings: read-out: Activity.
Type: functional
With CN1C/C(=C\c2ccc(Cl)cc2)C(=O)[C@]2(C1)[C@@H](c1ccc(Cl)cc1)CN(C)[C@@]21C(=O)Nc2ccccc21 the growth at 10 µM was 37.2%.

These molecules were tested on Rattus norvegicus (assay: Antiinflammatory activity in Wister albino rat assessed as inhibition of carrageenan-induced paw oedema at 50 mg/kg, ip administered 1 hr before carrageenan challenge measured after 1 hr of induction of inflammation relative to control). Settings: route intraperitoneal.
Type: functional
Work on CN1C/C(=C\c2ccc(Cl)cc2)C(=O)[C@]2(C1)[C@@H](c1ccc(Cl)cc1)CN(C)[C@@]21C(=O)Nc2ccccc21 yielded an inhibition in vivo at 50 mg/kg of 83.1%.

These molecules were tested on CAKI-1 (assay: Antitumor activity against human Caki1 cells assessed as cell growth at 10 uM after 48 hrs by sulforhodamine B assay). Settings: CAKI-1, 48 h, read-out: Activity.
Type: functional
Molecule CN1C/C(=C\c2ccc(Cl)cc2)C(=O)[C@]2(C1)[C@@H](c1ccc(Cl)cc1)CN(C)[C@@]21C(=O)Nc2ccccc21 has a growth at 10 µM of 45.8%.

The molecules below were run on Rattus norvegicus (assay: Antiinflammatory activity in Wister albino rat assessed as inhibition of carrageenan-induced paw oedema at 50 mg/kg, ip administered 1 hr before carrageenan challenge measured after 2 hrs of induction of inflammation relative to control). Settings: route intraperitoneal.
Type: functional
With CN1C/C(=C\c2ccc(Cl)cc2)C(=O)[C@]2(C1)[C@@H](c1ccc(Cl)cc1)CN(C)[C@@]21C(=O)Nc2ccccc21 the inhibition in vivo at 50 mg/kg was 63%.

What follows are molecules tested on OVCAR-3 (assay: Antitumor activity against human OVCAR-3 cells assessed as cell growth at 10 uM after 48 hrs by sulforhodamine B assay). Settings: OVCAR-3, 48 h, read-out: Activity.
Type: functional
In the case of CN1C/C(=C\c2ccc(Cl)cc2)C(=O)[C@]2(C1)[C@@H](c1ccc(Cl)cc1)CN(C)[C@@]21C(=O)Nc2ccccc21, the growth at 10 µM is reported as 48.4%.

What follows are molecules tested on IGROV-1 (assay: Antitumor activity against human IGROV1 cells assessed as cell growth at 10 uM after 48 hrs by sulforhodamine B assay). Settings: IGROV-1, 48 h, read-out: Activity.
Type: functional
CN1C/C(=C\c2ccc(Cl)cc2)C(=O)[C@]2(C1)[C@@H](c1ccc(Cl)cc1)CN(C)[C@@]21C(=O)Nc2ccccc21 gave a growth at 10 µM of 81.8%.

These molecules were tested on Malme-3M (assay: Antitumor activity against human MALME-3M cells assessed as cell growth at 10 uM after 48 hrs by sulforhodamine B assay). Settings: read-out: Activity.
Type: functional
CN1C/C(=C\c2ccc(Cl)cc2)C(=O)[C@]2(C1)[C@@H](c1ccc(Cl)cc1)CN(C)[C@@]21C(=O)Nc2ccccc21 showed a growth at 10 µM of 91.9%.

The molecules below were run on DU-145 (assay: Antitumor activity against human DU145 cells assessed as cell growth at 10 uM after 48 hrs by sulforhodamine B assay). Settings: DU-145, 48 h, read-out: Activity.
Type: functional
Work on CN1C/C(=C\c2ccc(Cl)cc2)C(=O)[C@]2(C1)[C@@H](c1ccc(Cl)cc1)CN(C)[C@@]21C(=O)Nc2ccccc21 yielded a growth at 10 µM of 83.8%.
